Source: patent publication US20100009949A1, “NOVEL METHOD” (BioXell S.p.A., priority 2001, published 2010)

How the values were obtained:
DU145 cells [1] = experiment: Cell proliferation assay (cell counting), DU145; format: cell-based, human
Procedure: (§1) Cell proliferation assay: All proliferation tests were performed after 24 h of cell starvation in phenol red- and serum-free medium containing 0.1% BSA. After starvation, cells were incubated in the same medium as before, with or without specific stimuli. Thereafter, cells were trypsinized, and each experimental point was derived from counting in the hemocytometer and then averaging at least six different fields for each well as previously reported (Crescioli et al. 2003). Experiments were performed seeding 4×10^4 cells onto 12-well plates in growth medium and incubated for 48 h with: 1) increasing concentrations of 1-alpha-fluoro-25-hydroxy-16,23E-diene-26,27-bishomo-20-epi-cholecalciferol (1×10^−12, 1×10^−11, 1×10^−10, 1×10^−9, 1×10^−8 M) with or without fixed concentration of KGF (10 ng/ml) or fixed concentration of bFGF (10 ng/ml); 2) fixed concentration of LY 294002 (10 nM) with or without KGF (10 ng/ml). In the same experiment each experimental point was repeated in triplicate and experiments were performed at least three times. Cell growth results are expressed as the percentage of growth compared with their relative controls.
Statistical analysis: All the data are shown as mean±SEM of the indicated number of experiments. Statistical analysis was performed with ANOVA and Student's T test for unpaired and, when applicable, for paired data. IC50 for dose response curves were calculated using the program ALLFIT.

PC3 cells = experiment: Cell proliferation assay (cell counting), PC3; format: cell-based, human; conditions: control 100±17
Procedure: as §1

DU145 cells [2] = experiment: Annexin-V binding assay (phosphatidylserine exposure, apoptosis); format: cell-based, human; conditions: DU145, 8 hours, 1×10^−8 M; control 57±1.7; n=6, p=0.017
Procedure: Annexin-V binding assay. Annexin-V binding assay was used to detect translocation of membrane phosphatidylserine (PS) from the inner to the outer side of the plasma membrane, since the exposure of PS is considered an early sign of apoptosis (Kagan et al. 2000). The assay was performed by using the “Annexin-V-Fluos staining Kit” (Roche). Before treatment, cells (1×10^6) were kept in serum-free medium for at least 24 h, then cells were incubated for 8 hours in the presence or absence of Compound 1 (1×10^−8 M), cells (1×10^6) were washed, trypsinized, centrifuged. After two washed in PBS, cells were resuspended in 100 ul of incubation buffer (supplied by manufacturer), 2 ul of Annexin-V-Fluos labeling reagent (Ann-V-F, Annexin-V conjugated to fluorescein, supplied at the 200× concentration by Roche) and 2 ul of propidium iodide solution (PI, 30 ug/ml in PBS) were added. After incubation (15 minutes in the dark at room temperature) samples were analyzed by flow cytometry. For each experimental set, two cell suspensions were prepared for instrumental setting and data analysis: 1) by omitting both Ann-V-F and PI staining (nonspecific fluorescence sample), and 2) by omitting only the PI staining (sample for compensation, see below). […] Fluorescence compensation was set by acquiring […] labeled with only Ann-V-F. For each sample 10.000 events were recorded at flow rate of 200/300 cells/s. […]

DU145 cells [3] = experiment: Matrigel invasion assay (Boyden chambers), DU145; format: cell-based, human; conditions: 1×10^−8 M, KGF 10 ng/ml, 24 h, no pre-incubation
Procedure: Invasion assay: Invasion assays were performed as described previously (Bonaccorsi et al. 2000 and 2004a and 2004b) according to Albini et al. (1987) using the Boyden chambers equipped with 8 um porosity polyvinylpyrrolidone-free polycarbonate filters (VWR International, Milan, Italy). A thin layer of Matrigel solution (50 ug/ml) was overlaid on the upper surface of the filter and allowed to gel by incubating the filters at 37° C. for 30 min. Cell ability to invade the substrate was assessed by using some different stimuli: keratinocyte growth factor, KGF (10 ng/ml), in presence or in absence of the inhibitor, 1-alpha-fluoro-25-hydroxy-16,23E-diene-26,27-bishomo-20-epi-cholecalciferol (1×10^−8 M). These molecules were added to the bottom well of the Boyden chambers. 9.5×10^4 cells were then added to the top of the chambers and incubated for 24 h at 37° C. Migrated cells were quantitated by counting cells with a Zeiss microscope (Oberkochen, Germany) equipped with brightfield optics (40× magnification). Results are expressed as the percentage of number of migrated cells per high-power field respect to control.

KGF receptor (KGFR) = experiment: KGF-induced KGFR autotransphosphorylation (immunoprecipitation, Western blot) in DU145 cells; format: cell-based, human
Procedure: (§2) Immunoprecipitation and Western blot analysis. Protein extraction and immunoprecipitation were performed as previously described (Bonaccorsi et al. 1997). Briefly, cells were scraped in PBS supplemented with 1 mM Na3VO4, centrifuged and resuspended in lysis buffer (20 mM Tris, pH 7.4, 150 mM NaCl, 0.25% NP-40, 1 mM Na3VO4, 1 mM phenylmethyl-sulfonyl fluoride (PMSF)). After protein measurement (Coomassie kit), aliquots of cell lysates containing equal amount of proteins (500 ug) were incubated for 1 hour with 30 ul of Protein A (or Protein G)-Sepharose for preclearing. Precleared lysates were then incubated for 1 hour using 5 ug of specific anti-KGFR antibodies on ice followed by overnight incubation at 4° C. with 30 ul of Protein A (or Protein G)-Sepharose. The immunobeads were washed three times in lysis buffer and then resuspended in 10 ul of 2× Laemmli's reducing sample buffer (62.5 mM Tris pH 6.8, 10% glycerol, 2% SDS, 2.5% pyronin and 200 mM dithiothreitol), boiled at 95° C. for 5 minutes and loaded onto 8% polyacrylamide-bisacrylamide gels. […]

PI3K = PI3K assay (immunokinase) after KGF stimulation of DU145 cells; format: cell-based, human; conditions: DU145, 1×10^−8 M, KGF 10 ng/ml
Procedure: PI3K assay: PI3K activity was evaluated in vitro assay as previously described (Luconi et al. 2004). Briefly, cells were stimulated with KGF (5 min) in the presence or absence of 1-alpha-fluoro-25-hydroxy-16,23E-diene-26,27-bishomo-20-epi-cholecalciferol, scraped in PBS supplemented with 1 mM Na3VO4, centrifuged and extracted with lysis buffer (20 mM Tris, pH 7.4, 137 mM NaCl, 1 mM CaCl2, 1 mM MgCl2, 1% NP-40, 1 mM Na3VO4, 1 mM PMSF). After measurement of proteins, the aliquots of cell extracts containing equivalent amount of proteins (500 ug) were incubated for 1 hour with 50 ul of Protein G-Sepharose for preclearing. Precleared lysates were then incubated with an antiphosphotyrosine PY20 antibody overnight at 4° C. with 50 ul of Protein G-Sepharose as described above. The Sepharose beads were washed two times with lysis buffer and twice with a 10 mM Tris-HCl (pH 7.4) containing 0.1 mM EGTA and 5 mM LiCl. After removal of the last wash, the beads were suspended in kinase buffer (10 mM Tris-HCl, 150 mM NaCl, 5 mM EDTA) containing 20 ug of L-alpha-phosphatidylinositol, 25 mM MgCl2 and 10 uCi of [gamma-^32P]ATP, and incubated for 20 min at room temperature. The reaction was stopped by the addition of 60 ul of HCl 6M and 160 ul of a mixture of chloroform and methanol (1:1). […] Quantifications of the bands was performed using a Kodak image analysis system.

AKT = AKT serine phosphorylation (Western blot) in KGF-stimulated DU145 cells; format: cell-based, human; conditions: DU145, 1×10^−8 M, KGF 10 ng/ml
Procedure: as §2

human BPH cells = conditions: primary cultures of human BPH cells; Crescioli et al. 2004; cited from earlier work
prostate [4] = conditions: intact and castrated, testosterone-replaced rats; Crescioli et al. 2004; cited from earlier work
prostate [5] = conditions: phase II clinical trials for BPH, preliminary results (Montorsi, 2005); cited from earlier work

C=C1/C(=C\C=C2/CCC[C@]3(C)C([C@@H](C)C/C=C/C(O)(CC)CC)=CC[C@@H]23)C[C@@H](O)C[C@@H]1F [Compound 1, 1-alpha-fluoro-25-hydroxy-16,23E-diene-26,27-bishomo-20-epi-cholecalciferol]
percentage number of cells, bFGF + Compound 1 (DU145 cells [1]; DU145, bFGF 10 ng/ml + Compound 1 1×10^−8 M, control 100±8.6): 74.1±9.2 percentage | IC50 (DU145 cells [1]; Homo sapiens, DU-145, basal, 48 h, cell counting, read-out: IC50 of inhibition of basal DU145 cell proliferation): 0.0221 ± 0.0191 nM | Inhibition of KGF-stimulated DU145 proliferation (DU145 cells [1]; KGF 10 ng/ml, 48 h, increasing concentrations of the analogue): completely and dose-dependently inhibits proliferation | percentage number of cells, KGF + Compound 1 (PC3 cells; PC3, KGF 10 ng/ml + Compound 1 1×10^−8 M): 69.9±9.9 percentage | percentage Annexin-V positive live cells (DU145 cells [2]): 62±1.2 percentage | Effect on KGF-stimulated Matrigel invasion of DU145 cells (DU145 cells [3]): completely inhibited | Effect on KGF-induced autotransphosphorylation of KGFR (KGF receptor (KGFR); DU145, 5 minutes pre-incubation, 1×10^−8 M, KGF 10 ng/ml): abrogated | Inhibitory effect on KGFR autophosphorylation after alpha-amanitin (KGF receptor (KGFR); DU145, after 4 hours incubation with 4 ug/ml alpha-amanitin): still present | Effect on KGF-stimulated PI3K activity (PI3K): inhibited the stimulatory effect of KGF on PI3K activity | Effect on KGF-stimulated AKT serine phosphorylation (AKT): inhibited KGF-stimulated AKT serine phosphorylation | Effect on prostate cell proliferation in vitro (human BPH cells): decrease prostate cell proliferation | Effect on prostate growth in vivo (prostate [4]): inhibition of prostate growth | Prostate volume compared to placebo (prostate [5]): significant reduction of prostate volume

bFGF: growth factor used as stimulus of DU145 proliferation (10 ng/ml)
percentage number of cells, bFGF alone (DU145 cells [1]; DU145, bFGF 10 ng/ml, control 100±8.6): 138±19.5 percentage

B1: KGF: Keratinocyte growth factor, stimulus, obtained from Prepro Tech EC (protein, UniProt P21781 32-194, looked up)
Fibroblast growth factor 7: CNDMTPEQMATNVNCSSPERHTRSYDYMEGGDIRVRRLFCRTQWYLRIDKRGKVKGTQEMKNNYNIMEIRTVAVGIVAIKGVESEFYLAMNKEGKLYAKKECNEDCNFKELILENHYNTYASAKWTHNGGEMFVALNQKGIPVRGKKTKKEQKTAHFLPMAIT
percentage number of cells, KGF alone (PC3 cells; PC3, KGF 10 ng/ml): 121.3±13 percentage
